From US5143911A, “Antibiotic C-3 di-hydroxyphenyl substituted cephalosporin compounds, compositions and method of use thereof” (Bristol-Myers Squibb Company, priority 1990, dated 1992)
≈ marks a conversion by molar mass, not a printed value.

Columns and labels:
M. morgani 1510 = settings: 18 h, pH 7.2
E. faecium A24817 = type: cell-based; settings: Enterococcus faecium, pH 7.2, 32° C. 18 hr, 10^6 cells/ml
P. mirabilis IFO-2849 = settings: Proteus mirabilis, IFO2849, 18 h, pH 7.2
P. rettgeri IPM-14 = settings: Providencia rettgeri, IPM14, 18 h, pH 7.2
S. aureus 209P = settings: Staphylococcus aureus, 18 h, pH 7.2
C. terrigena IFO 12685 = settings: 18 h, pH 7.2
S. aureus IPM-24 (MRSA) = settings: Staphylococcus aureus, 18 h, pH 7.2
X. maltophilia GN 12873 = settings: Stenotrophomonas maltophilia, GN12873, 18 h, pH 7.2
M. luteus 1001 = settings: Micrococcus luteus, 1001, 18 h, pH 7.2
K. pneumoniae PCI 602 = settings: Klebsiella pneumoniae, PCI602, 18 h, pH 7.2
X. maltophilia No. 661 = settings: Stenotrophomonas maltophilia, NO.661, 18 h, pH 7.2
S. epidermidis 11-1168 = type: cell-based; settings: Staphylococcus epidermidis, 111168, pH 7.2, 32° C. 18 hr, 10^6 cells/ml
P. cepacia No. 651 = settings: Burkholderia cepacia, NO.651, 18 h, pH 7.2
S. marcescens IPM-15 = settings: Serratia marcescens, IPM15, 18 h, pH 7.2
P. aeruginosa IPM-8 = settings: Pseudomonas aeruginosa, IPM8, 18 h, pH 7.2
P. vulgaris IPM-13 = type: cell-based; settings: Proteus vulgaris, IPM13, pH 7.2, 32° C. 18 hr, 10^6 cells/ml
M. morgani 1510/9 = settings: 18 h, pH 7.2
P. cepacia A21213 = type: cell-based; settings: Burkholderia cepacia, pH 7.2, 32° C. 18 hr, 10^6 cells/ml
E. faecalis A9808 = settings: Enterococcus faecalis, A9808, 18 h, pH 7.2
B. subtilis PCI 219 = settings: Bacillus subtilis, PCI219, 18 h, pH 7.2
S. aureus 4-1015 (MRSA) = settings: Staphylococcus aureus, 18 h, pH 7.2
E. coli Juhl A15119 = settings: Escherichia coli, JUHLA15119, 18 h, pH 7.2
S. aureus Smith = settings: Staphylococcus aureus, 18 h, pH 7.2
S. epidermidis 11-1230 = settings: Staphylococcus epidermidis, 111230, 18 h, pH 7.2
P. aeruginosa A20599 = type: cell-based; settings: Pseudomonas aeruginosa, pH 7.2, 32° C. 18 hr, 10^6 cells/ml
E. cloacae IPM-12 = settings: Enterobacter cloacae, IPM12, 18 h, pH 7.2
E. coli 255 = settings: Escherichia coli, 255, 18 h, pH 7.2
P. aeruginosa KKA 19 = settings: Pseudomonas aeruginosa, KKA19, 18 h, pH 7.2
S. marcescens IPM-16 = settings: Serratia marcescens, IPM16, 18 h, pH 7.2
P. aeruginosa IPM-9 = settings: Pseudomonas aeruginosa, IPM9, 18 h, pH 7.2
C. freundii GN 7391 = settings: Citrobacter freundii, GN7391, 18 h, pH 7.2
PCresistant S. aureus = assay: MIC, two-fold serial agar dilution, Mueller-Hinton agar (geometric mean, group Gp-Ib); type: cell-based; settings: Staphylococcus aureus, penicillin-resistant S. aureus, 5 strains
Experimental: (§1) For a primary evaluation of some representative compounds of this invention, minimum inhibitory concentrations (MIC's) were determined against 32 strains of test organisms by two-fold serial agar dilution method in Mueller-Hinton agar.
GpIb: PCresistant S. aureus

B. fragilis A 21916 = assay: In vitro activity against anaerobes (MIC), two-fold serial agar dilution, GAM agar; type: cell-based; settings: Bacteroides fragilis, A21916, Gn, Beta-Lactamase(-)
Ps. aeruginosa (7) = assay: MIC, two-fold serial agar dilution, Mueller-Hinton agar (geometric mean, group Gn-III); type: cell-based; settings: Pseudomonas aeruginosa, 7 strains
Experimental: as §1
GnIII: Ps. aeruginosa (7)

B. fragilis A 22693 = assay: In vitro activity against anaerobes (MIC), two-fold serial agar dilution, GAM agar; type: cell-based; settings: Bacteroides fragilis, A22693, Gn, Beta-Lactamase(-)
B. fragilis A 22695 = assay: as above; type: cell-based; settings: Bacteroides fragilis, A22695, Gn, Beta-Lactamase(+)
B. fragilis A 22533 = assay: as above; type: cell-based; settings: Bacteroides fragilis, A22533, Gn, Beta-Lactamase(+)
[1] = system: Penicillin (PC)sensitive S. (5 strains); assay: MIC, two-fold serial agar dilution, Mueller-Hinton agar (geometric mean, group Gp-Ia); type: cell-based, S. aureus; settings: Staphylococcus aureus
Experimental: as §1
Gp-Ia: Penicillin (PC)sensitive S.

P. acnes A 21933 = assay: In vitro activity against anaerobes (MIC); type: cell-based; settings: Cutibacterium acnes, A21933, Gp
C. perfringens A9635 = assay: microbe, parasite or virus in culture; type: cell-based; settings: Clostridium perfringens
[2] = system: CETresistant E. coli(3), and Kl. pneumoniae(2); assay: MIC, two-fold serial agar dilution, Mueller-Hinton agar (geometric mean, group Gn-Ib); type: cell-based; settings: Escherichia coli, read-out: Geometric Mean of MIC, Gn-Ib
Experimental: as §1
GnIb: CETresistant E. coli(3), and Kl. pneumoniae(2)

C. difficile A 21675 = assay: In vitro activity against anaerobes (MIC); type: cell-based; settings: Clostridioides difficile, A21675, Gp, Clindamycin-resistant
B. fragilis A 22021 = assay: In vitro activity against anaerobes (MIC), two-fold serial agar dilution, GAM agar; type: cell-based; settings: Bacteroides fragilis, A22021, Gn, Beta-Lactamase(-)
[3] = system: Cephalothin (CET)sensitive E. coli(2), Kl. pneumoniae(1) and Pr. mirabilis(2); assay: MIC, two-fold serial agar dilution, Mueller-Hinton agar (geometric mean, group Gn-Ia); type: cell-based; settings: 5 strains
Experimental: as §1
GnIa: Cephalothin (CET)sensitive E. coli(2)*, Kl. pneumoniae(1) and Pr.

B. fragilis A 22053 = assay: In vitro activity against anaerobes (MIC), two-fold serial agar dilution, GAM agar; type: cell-based; settings: Bacteroides fragilis, A22053, Gn, Beta-Lactamase(-)
[4] = system: M. morganii(1), Ent. cloacae(2), and Ser. marcescens(2); assay: MIC, two-fold serial agar dilution, Mueller-Hinton agar (geometric mean, group Gn-II); type: cell-based; settings: 5 strains
Experimental: as §1
GnII: M. morganii(1), Ent. cloacae(2), and Ser. marcescens(2)

B. fragilis A 22534 = assay: In vitro activity against anaerobes (MIC), two-fold serial agar dilution, GAM agar; type: cell-based; settings: Bacteroides fragilis, A22534, Gn, Beta-Lactamase(+)
B. fragilis CUH-108 = assay: as above; type: cell-based; settings: Bacteroides fragilis, CUH108, Gn, Beta-Lactamase(+), Clindamycin-resistant
Experimental: In vitro activity against anaerobic bacteria was determined on eight strains of B. fragilis by two-fold serial agar dilution method in GAM agar.

SMILES: Nc1nc(/C(=N/O)C(=O)NC2C(=O)N3C(C(=O)O)=C(/C=C/COC(=O)c4ccc(O)c(O)c4)CSC23)cs1 (stereo not drawn) [Id, 7-[(Z)-2-(2-Aminothiazol-4-yl)-2-hydroxyiminoacetamido]-3-[(E)-3l-(3,4-dihydroxybenzoyloxy)-1-propen-1-yl]-3-cephem-4-carboxylic acid]
- MIC (M. morgani 1510): 6.3 µg/mL (≈ 11.2 µM)
- MIC (E. faecium A24817): 100 µg/mL (≈ 178 µM)
- MIC (P. mirabilis IFO-2849): 0.2 µg/mL (≈ 0.356 µM)
- MIC (P. rettgeri IPM-14): 0.4 µg/mL (≈ 0.712 µM)
- MIC (S. aureus 209P): 0.8 µg/mL (≈ 1.42 µM)
- MIC (C. terrigena IFO 12685): 0.8 µg/mL (≈ 1.42 µM)
- MIC (S. aureus IPM-24 (MRSA)): 100 µg/mL (≈ 178 µM)
- MIC (X. maltophilia GN 12873): > 100 µg/mL
- MIC (M. luteus 1001): 0.2 µg/mL (≈ 0.356 µM)
- MIC (K. pneumoniae PCI 602): 0.025 µg/mL (≈ 0.0445 µM)
- MIC (X. maltophilia No. 661): > 100 µg/mL
- MIC (S. epidermidis 11-1168): 3.1 µg/mL (≈ 5.52 µM)
- MIC (P. cepacia No. 651): > 100 µg/mL
- MIC (S. marcescens IPM-15): > 100 µg/mL
- MIC (P. aeruginosa IPM-8): > 100 µg/mL
- MIC (P. vulgaris IPM-13): > 100 µg/mL
- MIC (M. morgani 1510/9): 0.2 µg/mL (≈ 0.356 µM)
- MIC (P. cepacia A21213): > 100 µg/mL
- MIC (E. faecalis A9808): 12.5 µg/mL (≈ 22.3 µM)
- MIC (B. subtilis PCI 219): 0.4 µg/mL (≈ 0.712 µM)
- MIC (S. aureus 4-1015 (MRSA)): 6.3 µg/mL (≈ 11.2 µM)
- MIC (E. coli Juhl A15119): 0.2 µg/mL (≈ 0.356 µM)
- MIC (S. aureus Smith): 0.8 µg/mL (≈ 1.42 µM)
- MIC (S. epidermidis 11-1230): 6.3 µg/mL (≈ 11.2 µM)
- MIC (P. aeruginosa A20599): > 100 µg/mL
- MIC (E. cloacae IPM-12): > 100 µg/mL
- MIC (E. coli 255): 0.8 µg/mL (≈ 1.42 µM)
- MIC (P. aeruginosa KKA 19): > 100 µg/mL
- MIC (S. marcescens IPM-16): > 100 µg/mL
- MIC (P. aeruginosa IPM-9): > 100 µg/mL
- MIC (C. freundii GN 7391): 50 µg/mL (≈ 89 µM)

SMILES: CO/N=C(\C(=O)NC1C(=O)N2C(C(=O)O)=C(/C=C/COC(=O)Nc3ccc(O)c(O)c3)CSC12)c1csc(N)n1 (stereo not drawn) [Ie, 7-[(Z)-2-(2-Aminothiazol-4-yl)-2-methoxyiminoacetamido]-3-[(E)-3-(N-3,4-dihyroxyphenyl)carbamoyloxy-1-propen-1-yl]-3-cephem-4-carboxylic acid]
- MIC (PCresistant S. aureus): 7.2 µg/mL (≈ 12.2 µM)
- MIC (B. fragilis A 21916): 6.3 µg/mL (≈ 10.7 µM)
- MIC (Ps. aeruginosa (7)): 50 µg/mL (≈ 84.7 µM)
- MIC (B. fragilis A 22693): 3.1 µg/mL (≈ 5.25 µM)
- MIC (B. fragilis A 22695): 25 µg/mL (≈ 42.3 µM)
- MIC (B. fragilis A 22533): > 100 µg/mL
- MIC [1]: 6.3 µg/mL (≈ 10.7 µM)
- MIC (P. acnes A 21933): 1.6 µg/mL (≈ 2.71 µM)
- MIC (C. perfringens A9635): 1.6 µg/mL (≈ 2.71 µM)
- MIC [2]: 0.46 µg/mL (≈ 0.779 µM)
- MIC (C. difficile A 21675): 50 µg/mL (≈ 84.7 µM)
- MIC (B. fragilis A 22021): 0.4 µg/mL (≈ 0.677 µM)
- MIC [3]: 0.23 µg/mL (≈ 0.389 µM)
- MIC (B. fragilis A 22053): 3.1 µg/mL (≈ 5.25 µM)
- MIC [4]: 3.6 µg/mL (≈ 6.1 µM)
- MIC (B. fragilis A 22534): > 100 µg/mL
- MIC (B. fragilis CUH-108): 100 µg/mL (≈ 169 µM)
